Key:
Assay in all cases: whole-cell patch clamp in transfected CHOK1 cells
Format in all cases: cell-based
Nav1.4 [1] = molecular target: Nav1.4 (Homo sapiens, UniProt P35499, F1586A)
Nav1.4 [2] = molecular target: Nav1.4 (Homo sapiens, UniProt P35499, F432W/I1280W/I1583W/V787W)
Nav1.4 [3] = molecular target: T1, Nav1.4 (Homo sapiens, UniProt P35499); conditions: CHO-K1, read-out: % block at 350 μM
Nav1.4 [4] = molecular target: T1, Nav1.4; conditions: CHO-K1, read-out: % block at 1.1 mM
[5] = CHO-K1, read-out: % block at 1.1 mM

Nav1.4 (Homo sapiens, UniProt P35499, F1586A), sequence (P35499 whole entry F1586A): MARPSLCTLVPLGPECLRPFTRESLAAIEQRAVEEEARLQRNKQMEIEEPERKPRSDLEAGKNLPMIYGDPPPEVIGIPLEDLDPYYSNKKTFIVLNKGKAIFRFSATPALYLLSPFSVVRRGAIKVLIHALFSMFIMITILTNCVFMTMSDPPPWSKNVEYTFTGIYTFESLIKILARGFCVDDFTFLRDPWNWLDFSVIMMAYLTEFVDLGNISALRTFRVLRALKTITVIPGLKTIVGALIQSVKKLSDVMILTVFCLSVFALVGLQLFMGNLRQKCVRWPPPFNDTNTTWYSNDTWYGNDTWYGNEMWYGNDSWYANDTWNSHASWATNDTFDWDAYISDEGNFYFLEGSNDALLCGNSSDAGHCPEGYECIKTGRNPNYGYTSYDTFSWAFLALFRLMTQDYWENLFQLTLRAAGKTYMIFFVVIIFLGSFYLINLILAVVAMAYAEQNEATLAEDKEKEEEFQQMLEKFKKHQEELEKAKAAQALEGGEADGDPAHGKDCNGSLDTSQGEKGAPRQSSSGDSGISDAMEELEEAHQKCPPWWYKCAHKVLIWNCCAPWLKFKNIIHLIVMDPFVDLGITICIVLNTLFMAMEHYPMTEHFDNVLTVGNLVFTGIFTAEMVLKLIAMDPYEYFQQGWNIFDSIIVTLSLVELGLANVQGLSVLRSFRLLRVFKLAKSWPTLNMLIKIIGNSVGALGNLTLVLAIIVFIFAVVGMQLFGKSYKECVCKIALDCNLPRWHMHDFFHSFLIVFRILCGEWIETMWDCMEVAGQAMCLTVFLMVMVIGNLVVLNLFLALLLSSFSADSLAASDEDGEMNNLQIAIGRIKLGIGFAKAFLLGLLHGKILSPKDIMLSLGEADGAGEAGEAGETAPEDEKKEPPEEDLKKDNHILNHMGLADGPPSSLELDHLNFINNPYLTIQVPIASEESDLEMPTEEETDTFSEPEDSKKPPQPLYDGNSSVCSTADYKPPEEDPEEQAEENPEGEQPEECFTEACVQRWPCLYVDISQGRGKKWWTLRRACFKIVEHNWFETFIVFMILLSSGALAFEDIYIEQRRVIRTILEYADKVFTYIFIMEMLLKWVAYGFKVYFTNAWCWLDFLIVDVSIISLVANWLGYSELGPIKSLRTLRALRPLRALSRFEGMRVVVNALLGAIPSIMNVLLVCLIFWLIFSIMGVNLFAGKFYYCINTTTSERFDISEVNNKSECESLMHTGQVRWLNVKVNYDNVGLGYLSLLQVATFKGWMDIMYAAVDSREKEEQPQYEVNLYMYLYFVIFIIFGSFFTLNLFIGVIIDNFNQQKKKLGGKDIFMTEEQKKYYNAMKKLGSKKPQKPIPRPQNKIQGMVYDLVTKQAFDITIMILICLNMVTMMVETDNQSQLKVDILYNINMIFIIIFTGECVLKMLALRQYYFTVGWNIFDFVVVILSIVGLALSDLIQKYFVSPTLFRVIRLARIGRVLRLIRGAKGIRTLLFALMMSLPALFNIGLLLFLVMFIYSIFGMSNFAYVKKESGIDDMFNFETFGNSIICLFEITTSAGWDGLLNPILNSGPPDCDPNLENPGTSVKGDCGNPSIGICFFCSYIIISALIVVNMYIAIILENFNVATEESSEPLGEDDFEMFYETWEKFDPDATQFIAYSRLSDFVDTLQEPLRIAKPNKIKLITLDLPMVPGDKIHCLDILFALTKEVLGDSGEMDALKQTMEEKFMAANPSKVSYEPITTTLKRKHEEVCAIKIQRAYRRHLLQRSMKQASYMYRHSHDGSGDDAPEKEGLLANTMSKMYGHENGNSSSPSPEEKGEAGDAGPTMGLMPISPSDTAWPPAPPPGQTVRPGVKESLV
Nav1.4 (Homo sapiens, UniProt P35499, F1586A), sequence (Q07699 19-218 partner): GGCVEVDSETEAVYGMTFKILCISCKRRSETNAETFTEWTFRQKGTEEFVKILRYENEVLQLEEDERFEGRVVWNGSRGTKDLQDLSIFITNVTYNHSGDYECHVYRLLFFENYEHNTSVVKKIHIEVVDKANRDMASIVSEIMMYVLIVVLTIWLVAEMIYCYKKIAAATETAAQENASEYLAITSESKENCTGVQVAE
Nav1.4 (Homo sapiens, UniProt P35499, F432W/I1280W/I1583W/V787W), sequence (P35499 whole entry F432W/V787W/I1280W/I1583W): as the sequence (P35499 whole entry F1586A) above, with F432W, V787W, I1280W, I1583W, A1586F counted along it
Nav1.4 (Homo sapiens, UniProt P35499, F432W/I1280W/I1583W/V787W), sequence (Q07699 19-218 partner): as the sequence (Q07699 19-218 partner) above
T1 sequence (P35499 whole entry): as the sequence (P35499 whole entry F1586A) above, with A1586F counted along it
T1 sequence (Q07699 19-218 partner): as the sequence (Q07699 19-218 partner) above

In the case of `C=C(C)[C@@H]1CCC(C)=C[C@H]1c1c(O)cc(CCCCC)cc1O` [Cannabidiol], the inhibition at 10 µM (Nav1.4 [1]; CHO-K1, read-out: % block at 10 μM) is reported as 25.3%.
`O=C(NCC1CCCCN1)c1cc(OCC(F)(F)F)ccc1OCC(F)(F)F` (stereo not drawn) [flecainide] showed an inhibition at 350 µM (Nav1.4 [2]; CHO-K1, read-out: % block at 350 μM) of 76.4% and an inhibition at 350 µM (Nav1.4 [3]) of 64.6%.
With `CCN(CC)CC(=O)Nc1c(C)cccc1C` [lidocaine] the inhibition at 1100 µM (Nav1.4 [2]; [5]) was 53.6%, the inhibition at 1100 µM (Nav1.4 [4]) was 60.6% and the inhibition at 1100 µM (Nav1.4 [1]; [5]) was 24.6%.
